Reference: publication PMC4955970, “Stable, synthetic analogs of diadenosine tetraphosphate inhibit rat and human P2X3 receptors and inflammatory pain” (Molecular Pain, 2016)
Entries after “also recorded” stand apart in the source; their conditions may differ.

Legend:
[1] = biological target: T1, human P2X3 receptors (hP2X3Rs) (Homo sapiens, UniProt P56373); experiment: Whole-cell patch clamp on HEK293 cells expressing recombinant human P2X3Rs; assay type: cell-based
T1 construct: transfected with rat or human full-length P2X3 cDNA subcloned into pIRES2-EGFP; expressed in transfected cells; host or cells: HEK293T (HEK293 in the results)
T1 sequence (P56373 1-397): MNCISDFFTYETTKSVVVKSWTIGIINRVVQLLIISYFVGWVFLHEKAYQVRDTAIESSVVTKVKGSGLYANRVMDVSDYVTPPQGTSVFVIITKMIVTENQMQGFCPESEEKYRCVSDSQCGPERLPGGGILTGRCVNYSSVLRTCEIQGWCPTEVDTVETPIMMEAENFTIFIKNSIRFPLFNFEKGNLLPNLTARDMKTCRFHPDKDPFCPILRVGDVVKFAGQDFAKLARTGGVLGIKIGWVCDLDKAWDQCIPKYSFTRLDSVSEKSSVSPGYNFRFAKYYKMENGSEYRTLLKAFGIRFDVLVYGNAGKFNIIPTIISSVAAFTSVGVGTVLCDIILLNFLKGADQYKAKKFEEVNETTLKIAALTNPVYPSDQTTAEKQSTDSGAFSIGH
Experimental: Rat trigeminal, nodose, or dorsal root ganglion (TG, NG, and DRG, respectivley) neurons in culture were prepared as described previously.[46],[47] Neurons were plated on poly-L-lysine (0.2 mg/ml)-coated Petri dishes and cultured for one to two days under an atmosphere containing 5% CO2. Cells were used within two days of plating when they lacked processes. HEK293T cells were prepared as reported previously[32],[48] and transfected with rat or human full-length P2X3 cDNA subcloned into pIRES2-EGFP (Clontech, Mountain View, CA, USA).
TG, NG, DRG, or HEK cells were recorded in the whole-cell configuration while being continuously superfused (at 2 ml/min) with control solution containing (in mM): 152 NaCl, 5 KCl, 1 MgCl2, 2 CaCl2, 10 glucose, and 10 HEPES; pH was adjusted to 7.4 with NaOH and osmolarity was adjusted to 320 mOsM with glucose. […] Responses to selective P2X3R agonist α,β-methylene-ATP (α,β-meATP; resistant to ectoATPase hydrolysis, Sigma-Aldrich) were measured using an EPC-9 amplifier operated by HEKA Patch Master software (HEKA Electronik, Germany). Cells were voltage-clamped at −70 mV. In most cells, series resistance was compensated by 80%. To determine EC50 values, dose-response curves were constructed for α,β-meATP by administering different agonist doses same cells and fitting data to a logistic equation (Origin 8.0, Microcal, Northampton, MA).
Agonists and antagonists were applied (usually for 2 s) via a rapid superfusion system (Rapid Solution Changer RSC-200; BioLogic Science Instruments, Grenoble, France) placed 100 to 150 µm near the cell. The time for the solution exchange across the cell was approximately 30 ms, as judged with liquid junction potential measurements. All chemicals, including enzymes for cell culture, were from Sigma-Aldrich (St. Louis, MO). […]
The peak amplitudes of the responses were measured using HEKA Patch Master software. […] All data are presented as mean ± SEM (n = the number of cells) with statistical significance assessed by paired t-test (for parametric data) or Mann-Whitney rank-sum test (for nonparametric data). […]

rat P2X2 receptors = biological target: T2, rat P2X2 receptors (Rattus norvegicus, UniProt P49653); experiment: Whole-cell patch clamp on HEK293 cells expressing rat P2X2 receptors (ATP-induced currents); assay type: cell-based; details: 1 µM; 10 µM ATP every 2 min
T2 construct: expressed in transfected cells; host or cells: HEK293
T2 sequence (P49653 1-472): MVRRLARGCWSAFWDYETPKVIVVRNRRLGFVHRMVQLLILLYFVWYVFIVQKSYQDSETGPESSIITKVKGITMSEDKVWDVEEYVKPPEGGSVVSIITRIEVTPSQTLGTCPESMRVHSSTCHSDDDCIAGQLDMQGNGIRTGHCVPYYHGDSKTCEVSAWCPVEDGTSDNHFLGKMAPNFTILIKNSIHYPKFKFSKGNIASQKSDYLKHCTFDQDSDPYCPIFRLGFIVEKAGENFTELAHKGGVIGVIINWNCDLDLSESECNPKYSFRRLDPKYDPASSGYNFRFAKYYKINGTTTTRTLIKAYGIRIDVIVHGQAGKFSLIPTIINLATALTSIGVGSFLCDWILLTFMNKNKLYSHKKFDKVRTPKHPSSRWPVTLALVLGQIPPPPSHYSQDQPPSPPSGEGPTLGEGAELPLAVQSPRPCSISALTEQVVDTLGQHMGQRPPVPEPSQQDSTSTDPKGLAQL

remaining activity at 1 µM ([1]; HEK293, read-out: α,β-meATP test currents, % of control): 12 ± 4% | remaining activity at 0.1 µM ([1]; HEK293, read-out: α,β-meATP test responses, % of control): 48 ± 8% | activity at 0.01 µM ([1]; HEK293, read-out: α,β-meATP-activated currents, % of control values): 80 ± 5%
Compound: Nc1ncnc2c1ncn2[C@@H]1O[C@H](COP(=O)(O)OP(=O)(O)NP(=O)(O)OP(=O)(O)OC[C@H]2O[C@@H](n3cnc4c(N)ncnc43)[C@H](O)[C@@H]2O)[C@@H](O)[C@H]1O [AppNHppA, diadenosine 5′,5′′′-P^1,P^4-(β,γ-imido)tetraphosphate]
HAD or partial agonism effect on P2X2R-mediated currents (rat P2X2 receptors): did not produce any HAD or partial agonism effects; also recorded: does not inhibit
